Structures can show the parent of a compound that is named as a salt.
tested on: recombinant guanylate cyclase reporter cell line; assay: Action on recombinant guanylate cyclase reporter cell line (MEC); type: cell-based; conditions: in some cases mean values obtained from individual determinations
Experimental: B-2. Action on Recombinant Guanylate Cyclase Reporter Cell Line
The cellular action of the compounds according to the invention is determined on a recombinant guanylate cyclase reporter cell line, as described in F. Wunder et al., Anal. Biochem. 339, 104-112 (2005).
Representative values (MEC=minimal effective concentration) for the compounds according to the invention are shown in the following table (in some cases as mean values obtained from individual determinations): […]

SMILES	minimal effective concentration
CC[C@H](CO)NC(=O)c1c(C)nc2c(OCc3ccccc3)cccn12 [Example 17, 8-(Benzyloxy)-N-[(2R)-1-hydroxybutan-2-yl]-2-methylimidazo[1,2-a]pyridine-3-carboxamide]	3 µM
CCCC[C@H](CO)NC(=O)c1c(C)nc2c(OCc3cccc(C)c3F)cccn12 [Example 11, 8-[(2-fluoro-3-methylbenzyl)oxy]-N-[(2R)-1-hydroxyhexan-2-yl]-2-methylimidazo[1,2-a]pyridine-3-carboxamide]	1.5 µM
Cc1nc2c(OCc3c(F)cccc3F)cccn2c1C(=O)N[C@@H](CO)C(C)(C)O [Example 165, 8-[(2,6-Difluorobenzyl)oxy]-N-[(2S)-1,3-dihydroxy-3-methylbutan-2-yl]-2-methylimidazo[1,2-a]-pyridine-3-carboxamide]	1 µM
CCCC[C@H](CO)NC(=O)c1c(C2CC2)nc2c(OCc3c(F)cccc3F)cccn12 [Example 134, 2-cyclopropyl-8-[(2,6-difluorobenzyl)oxy]-N-[(2R)-1-hydroxyhexan-2-yl]imidazo[1,2-a]-pyridine-3-carboxamide]	0.3 µM
CCC[C@H](CO)NC(=O)c1c(C)nc2c(OCc3c(F)cccc3F)cccn12 [Example 18, 8-[(2,6-difluorobenzyl)oxy]-N-[(2R)-1-hydroxy-pentan-2-yl]-2-methylimidazo[1,2-a]pyridine-3-carboxamide]	0.1 µM
Cc1nc2c(OCc3c(F)cccc3F)cccn2c1C(=O)NCCC1(O)CCCC1 [Example 117, 8-[(2,6-difluorobenzyl)oxy]-N-[2-(1-hydroxycyclopentyl)ethyl]-2-methylimidazo[1,2-a]pyridine-3-carboxamide]	0.03 µM
CCOCC(CO)NC(=O)c1c(C)nc2c(OCc3c(F)cccc3F)cccn12 (racemic) [Example 160, rac-8-[(2,6-Difluorobenzyl)oxy]-N-(1-ethoxy-3-hydroxypropan-2-yl)-2-methylimidazo[1,2-a]-pyridine-3-carboxamide]	0.3 µM
Cc1nc2c(OCc3c(F)cccc3F)cccn2c1C(=O)NC(c1ccc(F)cc1)C(C)(C)O (racemic) [Example 152, rac-8-[(2,6-difluorobenzyl)oxy]-N-[1-(4-fluorophenyl)-2-hydroxy-2-methylpropyl]-2-methylimidazo[1,2-a]pyridine-3-carboxamide]	0.3 µM
Cc1nc2c(OCc3c(F)cccc3F)cccn2c1C(=O)N[C@@H](CO)CC[C@@H](O)C(F)(F)F [Example 135, 8-[(2,6-difluorobenzyl)oxy]-2-methyl-N-[(2R, 5R)-6,6,6-trifluoro-1,5-dihydroxyhexan-2-yl]imidazo[1,2-a]pyridine-3-carboxamide trifluoroacetate (1:1)]	0.1 µM
Cc1cc(OCCC(C(F)(F)F)C(F)(F)F)c2nc(C)c(C(=O)NC3CCCC3O)n2c1 (centres unmarked) [Example 173, N-(2-hydroxycyclopentyl)-2,6-dimethyl-8-[4,4,4-trifluoro-3-(trifluoromethyl)butoxy]imidazo[1,2-a]pyridine-3-carboxamide]	3 µM
CSCC[C@H](CO)NC(=O)c1c(C)nc2c(OCc3c(F)cccc3F)cccn12 [Example 25, 8-[(2,6-difluorobenzyl)oxy]-N-[(2R)-1-hydroxy-4-(methylsulphanyl)butan-2-yl]-2-methyl-imidazo[1,2-a]pyridine-3-carboxamide]	0.1 µM
CC[C@H](CO)NC(=O)c1c(C)nc2c(OCc3cccc(F)c3F)cccn12 [Example 44, 8-[(2,3-difluorobenzyl)oxy]-N-[(2R)-1-hydroxybutan-2-yl]-2-methylimidazo[1,2-a]-pyridine-3-carboxamide]	0.3 µM
CCC(C)[C@H](CO)NC(=O)c1c(C)nc2c(OCC3CCCCC3)cccn12 (stereo partly drawn) [Example 96, 8-(cyclohexylmethoxy)-N-[(2R)-1-hydroxy-3-methylpentan-2-yl]-2-methylimidazo[1,2-a]pyridine-3-carboxamide]	3 µM
CCC[C@@H](CO)NC(=O)c1c(C)nc2c(OCC3CCCCC3)cccn12 [Example 89, 8-(cyclohexylmethoxy)-N-[(2S)-1-hydroxypentan-2-yl]-2-methylimidazo[1,2-a]pyridine-3-carboxamide]	1 µM
CCCC[C@H](CO)NC(=O)c1c(C)nc2c(OCc3c(F)cccc3F)cc(C3CC3)cn12 [Example 61, 6-cyclopropyl-8-[(2,6-difluorobenzyl)oxy]-N-[(2R)-1-hydroxyhexan-2-yl]-2-methylimidazo[1,2-a]pyridine-3-carboxamide]	1 µM
Cc1nc2c(OCc3c(F)cccc3F)cccn2c1C(=O)NC(CO)CCCC(F)(F)F (racemic) [Example 114, rac-8-[(2,6-difluorobenzyl)oxy]-2-methyl-N(6,6,6-trifluoro-1-hydroxyhexan-2-yl)imidazo[1,2-a]pyridine-3-carboxamide]	0.03 µM

SMILES	minimal effective concentration
Cc1cc(OCCC(C(F)(F)F)C(F)(F)F)c2nc(C)c(C(=O)NC3c4ccccc4CC3O)n2c1 (centres unmarked) [Example 172, N-(2-Hydroxy-2,3-dihydro-1H-inden-1-yl)-2,6-dimethyl-8-[4,4,4-trifluoro-3-(trifluoromethyl)-butoxy]imidazo[1,2-a]pyridine-3-carboxamide]	1 µM
CCCC[C@H](CO)NC(=O)c1cnc2c(OCc3c(F)cccc3F)cccn12 [Example 62, 8-[(2,6-difluorobenzyl)oxy]-N-[(2R)-1-hydroxyhexan-2-yl]imidazo[1,2-a]pyridine-3-carboxamide]	0.3 µM
Cc1nc2c(OCC3CCC3)cccn2c1C(=O)NCCC1(O)CCCC1 [Example 97, 8-(cyclobutylmethoxy)-N-[2-(1-hydroxycyclopentyl)ethyl]-2-methylimidazo[1,2-a]pyridine-3-carboxamide]	1 µM
CCCC[C@H](CO)NC(=O)c1c(C)nc2c(OCc3c(F)cccc3Cl)cccn12 [Example 3, 8-[(2-chloro-6-fluorobenzyl)oxy]-N-[(2R)-1-hydroxyhexan-2-yl]-2-methylimidazo[1,2-a]pyridine-3-carboxamide]	0.1 µM
Cc1nc2c(OCc3c(F)cccc3F)cccn2c1C(=O)NC(CO)c1ccc(F)cc1 (single isomer, unassigned; ent-8) [Example 107, ent-8-[(2,6-Difluorobenzyl)oxy]-N-[1-(4-fluorophenyl)-2-hydroxyethyl]-2-methylimidazo[1,2-a]-pyridine-3-carboxamide]	0.1 µM
CCc1nc2c(OCC3CCC3)cccn2c1C(=O)N[C@@H](C)CO [Example 58, 8-(cyclobutylmethoxy)-2-ethyl-N-[(2S)-1-hydroxypropan-2-yl]imidazo[1,2-a]pyridine-3-carboxamide formic acid salt]	3 µM
CCCC[C@H](CO)NC(=O)c1c(C)nc2c(OCc3c(F)c(F)cc(F)c3F)cccn12 [Example 7, N-[(2R)-1-hydroxyhexan-2-yl]-2-methyl-8-[(2,3,5,6-tetrafluorobenzyl)oxy]imidazo[1,2-a]pyridine-3-carboxamide]	0.3 µM
CCCc1nc2c(OCC3CCCCC3)cccn2c1C(=O)N[C@@H](C)CO [Example 57, 8-(cyclohexylmethoxy)-N-[(2S)-1-hydroxypropan-2-yl]-2-propylimidazo[1,2-a]-pyridine-3-carboxamide]	1 µM
Cc1nc2c(OCC3CCCCC3)cccn2c1C(=O)N[C@@H](C)CO [Example 75, 8-(cyclohexylmethoxy)-N-[(2S)-1-hydroxypropan-2-yl]-2-methylimidazo[1,2-a]pyridine-3-carboxamide]	0.22 µM
CCCC[C@H](CO)NC(=O)c1c(C)nc2c(OCc3cccc4c3OC(F)(F)O4)cccn12 [Example 12, 8-[(2,2-difluoro-1,3-benzodioxol-4-yl)methoxy]-N-[(2R)-1-hydroxyhexan-2-yl]-2-methylimidazo[1,2-a]-pyridine-3-carboxamide]	3 µM
CCCC[C@H](CO)NC(=O)c1c(C)nc2c(OCc3c(F)cccc3F)cc(N3CCCC3)cn12 [Example 64, 8-[(2,6-difluorobenzyl)oxy]-N-[(2R)-1-hydroxyhexan-2-yl]-2-methyl-6-(pyrrolidin-1-yl)imidazo[1,2-a]pyridine-3-carboxamide]	3 µM
CCCC[C@H](CO)NC(=O)c1c(C)nc2c(OCc3c(Cl)cccc3Cl)cccn12 [Example 8, 8-[(2,6-dichlorobenzyl)oxy]-N-[(2R)-1-hydroxyhexan-2-yl]-2-methylimidazo[1,2-a]pyridine-3-carboxamide]	0.3 µM
C#Cc1cc(OCc2c(F)cccc2F)c2nc(C)c(C(=O)N[C@@H](CO)CCCC)n2c1 [Example 126, 8-[(2,6-Difluorobenzyl)oxy]-6-ethynyl-N-[(2R)-1-hydroxyhexan-2-yl]-2-methylimidazo[1,2-a]-pyridine-3-carboxamide]	0.1 µM
Cc1nc2c(OCc3c(F)cccc3F)cccn2c1C(=O)NC(CO)CCC(F)(F)F (single isomer, unassigned; ent-8) [Example 122, ent-8-[(2,6-Difluorobenzyl)oxy]-2-methyl-N-(5,5,5-trifluoro-1-hydroxypentan-2-yl)imidazo[1,2-a]-pyridine-3-carboxamide]	0.03 µM
CCCC[C@H](CO)NC(=O)c1c(C)nc2c(OCc3c(F)cccc3F)cc(N3CCOCC3)cn12 [Example 63, 8-[(2,6-difluorobenzyl)oxy]-N-[(2R)-1-hydroxyhexan-2-yl]-2-methyl-6-(morpholin-4-yl)imidazo[1,2-a]pyridine-3-carboxamide]	3 µM
Cc1nc2c(OCc3c(F)cccc3F)cccn2c1C(=O)N[C@@H](CO)CCO [Example 129, 8-[(2,6-difluorobenzyl)oxy]-N-[(2R)-1,4-dihydroxybutan-2-yl)-2-methylimidazo[1,2-a]pyridine-3-carboxamide]	3 µM

— patent US8778964B2, “Hydroxy-substituted imidazo[1,2-a]-pyridinecarboxamides and their use” (Bayer Pharma Aktiengesellschaft, priority 2012, dated 2014)
